These results are taken from PubChem BioAssay (NCI).

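The compound was tested at five concentrations on cells cultured in 96-well plates, with a 48-hour exposure period. TGI is the concentration that stops growth completely.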 Some results are limits rather than exact numbers.

The first test relates to T-47D breast. The test can be described thus: DTP human tumour cell line panel, 48 h.
For `CCOC(=O)c1csc(NC(=O)CN2CCN(C)CC2)n1`, the TGI was more than 100 µM.
Consider `CC(C)(C)[Si](C)(C)OC1/C(=C/C#N)C(n2ccc(=O)[nH]c2=O)OC1CO` (centres undefined), for which the TGI was more than 100 µM.
Take `CN1C(=O)C(CC=O)(C(C)(C)C)c2ccccc21` (centres undefined): the TGI is more than 100 µM.
With `O=C(O)c1cccnc1`, the TGI was more than 100 µM.
Consider `C[C@@H]1CCC2[C@@H](C)[C@@H](OCCO[C@H]3OC4O[C@@]5(C)CCC6[C@H](C)CCC([C@H]3C)[C@@]46OO5)OC3O[C@@]4(C)CCC1[C@]32OO4` (some centres undefined), for which the TGI was more than 100 µM.
On the same count and under the same terms, as for `Cc1cc(OCc2nnc3n2N=C(c2cc(F)c(Cl)cc2Cl)/C(=C/c2ccc(Cl)cc2)S3)ccc1Cl`, the figure is more than 100 µM.

The test system of a further test is SF-268 CNS. The test can be described thus: DTP human tumour cell line panel, 48 h.
Molecule `CC(C)(C)[Si](C)(C)OC1/C(=C/C#N)C(n2ccc(=O)[nH]c2=O)OC1CO` (centres undefined) returned a TGI of more than 100 µM.
Take `CC#C[P+](c1ccccc1)(c1ccccc1)c1ccccc1`: the TGI turned out to be 8.44 µM.
Molecule `CCCC(O)C(NC(=O)CCl)C(=O)O` (centres undefined) registered a TGI of more than 100 µM.
The same measure, in the same setting: under `CN1C(=O)C(CC=O)(C(C)(C)C)c2ccccc21` (centres undefined) stands more than 100 µM.
Still for that read-out and setting: under `COc1cc(/C=C/C(=O)O)ccc1C(=O)OCc1ccccc1` stands more than 100 µM.
`O=C(CC(=O)c1ccccc1)CC(O)(c1ccccc1)c1ccccc1` returned a TGI of 24.6 µM. That is a double-digit micromolar value.
Still for that read-out and setting: as for `O=C(O)c1cccnc1`, the figure is more than 100 µM; as for `Cc1cccc(C(C)C)c1NC(=O)CC1Sc2ccccc2NC1=O` (centres undefined), more than 100 µM.
On to `CC(C)C1=C(Cc2ccccc2)C(=O)O/C1=C\c1cc(Cl)c(O)c(Cl)c1`, for which the TGI worked out at 48.2 µM.
Molecule `COc1cc2c(cc1O)C1C(O)C(O)C=C3CCN(C2)C31` (centres undefined) displayed a TGI of 10.5 µM.
On to `C[C@@H]1CCC2[C@@H](C)[C@@H](OCCO[C@H]3OC4O[C@@]5(C)CCC6[C@H](C)CCC([C@H]3C)[C@@]46OO5)OC3O[C@@]4(C)CCC1[C@]32OO4` (some centres undefined), for which the TGI was more than 100 µM.
In the case of `Cc1cc(OCc2nnc3n2N=C(c2cc(F)c(Cl)cc2Cl)/C(=C/c2ccc(Cl)cc2)S3)ccc1Cl`, the TGI stood at 51.4 µM.
Consider `CC(C)=CCc1c(O)ccc2ccc(=O)oc12`, for which the concentration for total growth inhibition (TGI) is more than 100 µM.

The subject of a further test is SK-MEL-5 melanoma. The test can be described thus: DTP human tumour cell line panel, 48 h.
`CCOC(=O)c1csc(NC(=O)CN2CCN(C)CC2)n1`: the TGI is more than 100 µM.
On the same count and under the same terms, under `CC(C)(C)[Si](C)(C)OC1/C(=C/C#N)C(n2ccc(=O)[nH]c2=O)OC1CO` (centres undefined) stands more than 100 µM; under `CC#C[P+](c1ccccc1)(c1ccccc1)c1ccccc1`, 11.9 µM.
As to `CCCC(O)C(NC(=O)CCl)C(=O)O` (centres undefined), the TGI was more than 100 µM.
On the same count and under the same terms, as for `CN1C(=O)C(CC=O)(C(C)(C)C)c2ccccc21` (centres undefined), the figure is more than 100 µM; as for `COc1cc(/C=C/C(=O)O)ccc1C(=O)OCc1ccccc1`, more than 100 µM; as for `O=C(CC(=O)c1ccccc1)CC(O)(c1ccccc1)c1ccccc1`, 13.7 µM.
With `O=C(O)c1cccnc1`, the TGI is more than 100 µM.
The molecule `Cc1cccc(C(C)C)c1NC(=O)CC1Sc2ccccc2NC1=O` (centres undefined) came in with a TGI of more than 100 µM.
Regarding `CC(C)C1=C(Cc2ccccc2)C(=O)O/C1=C\c1cc(Cl)c(O)c(Cl)c1`, the TGI came out at 34.5 µM.
`COc1cc2c(cc1O)C1C(O)C(O)C=C3CCN(C2)C31` (centres undefined) yielded a TGI of 2.95 µM.
The molecule `C[C@@H]1CCC2[C@@H](C)[C@@H](OCCO[C@H]3OC4O[C@@]5(C)CCC6[C@H](C)CCC([C@H]3C)[C@@]46OO5)OC3O[C@@]4(C)CCC1[C@]32OO4` (some centres undefined) displayed a TGI of more than 39.8 µM.
`Cc1cc(OCc2nnc3n2N=C(c2cc(F)c(Cl)cc2Cl)/C(=C/c2ccc(Cl)cc2)S3)ccc1Cl` showed a TGI of 36.5 µM.
For `CC(C)=CCc1c(O)ccc2ccc(=O)oc12`, the TGI stood at 23.5 µM. Against the preceding molecule, the TGI is about 1.6-fold lower.

For a further test, the system named is RXF 393 renal. The test can be described thus: DTP human tumour cell line panel, 48 h.
`CCOC(=O)c1csc(NC(=O)CN2CCN(C)CC2)n1` came in with a TGI of more than 100 µM.
`CC(C)(C)[Si](C)(C)OC1/C(=C/C#N)C(n2ccc(=O)[nH]c2=O)OC1CO` (centres undefined) gave a TGI of more than 100 µM.
With `CC#C[P+](c1ccccc1)(c1ccccc1)c1ccccc1`, the TGI was 18.9 µM. This counts as double-digit micromolar.
`CCCC(O)C(NC(=O)CCl)C(=O)O` (centres undefined) gave a TGI of more than 100 µM.
Regarding `CN1C(=O)C(CC=O)(C(C)(C)C)c2ccccc21` (centres undefined), the total growth inhibition concentration (TGI) is more than 100 µM.
As to `COc1cc(/C=C/C(=O)O)ccc1C(=O)OCc1ccccc1`, the TGI is more than 100 µM.
`Cc1cccc(C(C)C)c1NC(=O)CC1Sc2ccccc2NC1=O` (centres undefined) yielded a TGI of more than 100 µM.
As to `CC(C)C1=C(Cc2ccccc2)C(=O)O/C1=C\c1cc(Cl)c(O)c(Cl)c1`, the TGI stood at 30.5 µM. In other words, the double-digit micromolar range.
Same read-out and setting: as for `COc1cc2c(cc1O)C1C(O)C(O)C=C3CCN(C2)C31` (centres undefined), the figure is 5.42 µM; as for `C[C@@H]1CCC2[C@@H](C)[C@@H](OCCO[C@H]3OC4O[C@@]5(C)CCC6[C@H](C)CCC([C@H]3C)[C@@]46OO5)OC3O[C@@]4(C)CCC1[C@]32OO4` (some centres undefined), more than 100 µM; as for `Cc1cc(OCc2nnc3n2N=C(c2cc(F)c(Cl)cc2Cl)/C(=C/c2ccc(Cl)cc2)S3)ccc1Cl`, 39.4 µM.
Take `CC(C)=CCc1c(O)ccc2ccc(=O)oc12`: the TGI was more than 100 µM.

A further test deals with MOLT-4 leukemia. The test can be described thus: DTP human tumour cell line panel, 48 h.
`CCOC(=O)c1csc(NC(=O)CN2CCN(C)CC2)n1` returned a TGI of more than 100 µM.
As to `CC(C)(C)[Si](C)(C)OC1/C(=C/C#N)C(n2ccc(=O)[nH]c2=O)OC1CO` (centres undefined), the TGI is more than 100 µM.
Consider `CC#C[P+](c1ccccc1)(c1ccccc1)c1ccccc1`, for which the TGI was determined as 5.31 µM.
The same measure, in the same setting: under `CCCC(O)C(NC(=O)CCl)C(=O)O` (centres undefined) stands more than 100 µM; under `CN1C(=O)C(CC=O)(C(C)(C)C)c2ccccc21` (centres undefined), more than 100 µM.
In turn, `COc1cc(/C=C/C(=O)O)ccc1C(=O)OCc1ccccc1` registered a TGI of more than 100 µM.
Same read-out and setting: as for `O=C(CC(=O)c1ccccc1)CC(O)(c1ccccc1)c1ccccc1`, the figure is 42.8 µM; as for `O=C(O)c1cccnc1`, more than 100 µM.
`Cc1cccc(C(C)C)c1NC(=O)CC1Sc2ccccc2NC1=O` (centres undefined) came in with a TGI of more than 100 µM.

As usually defined, the TGI is the concentration giving total growth inhibition. High values mean less potent growth arrest, low ones more potent growth arrest.
